For this experiment, the target named is T1, human M4 muscarinic acetylcholine receptor (Homo sapiens, UniProt P08173).
T1 construct: expressed in transfected cells; host or cells: CHO-K1
T1 sequence (P08173 1-479): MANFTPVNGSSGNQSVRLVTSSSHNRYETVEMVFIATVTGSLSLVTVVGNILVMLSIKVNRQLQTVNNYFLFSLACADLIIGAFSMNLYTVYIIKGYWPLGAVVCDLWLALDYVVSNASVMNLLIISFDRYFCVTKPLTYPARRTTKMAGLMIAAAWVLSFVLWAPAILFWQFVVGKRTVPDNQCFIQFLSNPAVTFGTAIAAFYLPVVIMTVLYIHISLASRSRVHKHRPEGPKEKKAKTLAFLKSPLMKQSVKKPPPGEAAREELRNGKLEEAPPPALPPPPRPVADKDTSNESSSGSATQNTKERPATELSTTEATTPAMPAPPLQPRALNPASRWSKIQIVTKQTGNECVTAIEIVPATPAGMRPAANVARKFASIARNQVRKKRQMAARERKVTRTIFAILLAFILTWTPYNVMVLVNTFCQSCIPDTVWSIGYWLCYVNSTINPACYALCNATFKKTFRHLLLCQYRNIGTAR
The experiment in a line: human FLIPR-based M4 PAM assay (CHO-K1 cells with human M4 receptor and Gαqi5, calcium dye fluorescence, acetylcholine at 20% of maximum response). The class given is cell-based. To be noted: inflection point (IP) of 4 parameter logistic dose response curve, human M4 receptor + Gαqi5, FLIPR Tetra. In outline: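 CHO-K1 cells were loaded with calcium dye at 37 °C for ~1 h. Fluorescence (ex 470–495/em 515–575 nm) was read for 4 min after test compound at increasing concentrations, then 3.5 min after acetylcholine at an EC20; sometimes a third addition at EC70 followed. The value is the inflection point of a 4-parameter logistic fit.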
What is called EC50 is the concentration needed to bring the measured effect to its halfway point. As for `Cc1cn2c(=O)[nH]nc2nc1N1CC[C@@H](Oc2ccc3c(cnn3C)c2)[C@H](F)C1` [Example 7, 7-((3R,4R)-3-fluoro-4-((1-methyl-1H-indazol-5-yl)oxy)piperidin-1-yl)-6-methyl-[1,2,4]triazolo[4,3-a]pyrimidin-3(2H)-one], the half-maximal effective concentration (EC50) stood at 138 nM.

Take `Cc1cn2c(=O)n(C)nc2nc1N1CCC(Oc2cccc(C#N)c2)CC1` [Example 17, 3-((1-(2,6-dimethyl-3-oxo-2,3-dihydro-[1,2,4]triazolo[4,3-a]pyrimidin-7-yl)piperidin-4-yl)oxy)benzonitrile]: the EC50 stood at 36 nM.

Regarding `COc1ccc(OC2CCN(c3nc4c(cc3C)CN(C(=O)C3(C)CCCC3)C4)CC2)cn1` [Example 44, (2-(4-((6-methoxypyridin-3-yl)oxy)piperidin-1-yl)-3-methyl-5,7-dihydro-6H-pyrrolo[3,4-b]pyridin-6-yl)(1-methylcyclopentyl)methanone], the EC50 is 489 nM.

For `COc1ccc(OC2CCN(c3nc4c(cc3C)CN(C(=O)C3CCCC3)C4)CC2)cn1` [Example 46, cyclopentyl(2-(4-((6-methoxypyridin-3-yl)oxy)piperidin-1-yl)-3-methyl-5,7-dihydro-6H-pyrrolo[3,4-b]pyridin-6-yl)methanone], the EC50 is 306 nM.

Take `COc1ccc(OC2CCN(c3nc4c(cc3C)C(=O)OC4CO)CC2)cn1` (centres unmarked) [Example 33, 7-(Hydroxymethyl)-2-(4-((6-methoxypyridin-3-yl)oxy)piperidin-1-yl)-3-methylfuro[3,4-b]pyridin-5(7H)-one]: the concentration giving a half-maximal response (EC50) stood at 34 nM.

The values are drawn from patent publication US11230556B2 (Merck Sharp & Dohme Corp., priority 2016, dated 2022).
